# Where two headings read alike, the source gives them in different places.
# How the values were obtained:
# EHV-1-GFP = EHV-1-GFP antiviral assay, GFP fluorometry; format: cell-based, equine herpesvirus 1
# EHV-1 = experiment: EHV-1-specific qPCR of virus release into culture medium; format: cell-based, equine herpesvirus 1
# [1] = test system: Epstein–Barr virus P3HR-1; experiment: EBV lytic assay in TPA-induced P3HR-1 cells, qPCR; format: cell-based; conditions: Table S1, read-out: antiviral EC50, EBV
# MHV-68-Luc = MHV-68-Luc luciferase reporter assay; format: cell-based, murine herpesvirus 68
# vaccinia virus VV IHD-5 = experiment: microbe, parasite or virus in culture; format: cell-based; conditions: read-out: antiviral EC50, VV
# SARS-CoV-2 d6-YFP [2] = conditions: for CDK8 inhibitor sensitivity of SARS-CoV-2 in Caco-2 cells: in words
# HCMV = test system: HCMV; set-up: method as in ref 35, 38 (a number printed in a supplementary file, which may have a reference list of its own: not looked up in the article's list); conditions: Table S1; read-out: antiviral EC50, HCMV; cited from earlier work
# RhCMV = test system: RhCMV; set-up: method as in ref 35, 38 (a number printed in a supplementary file, which may have a reference list of its own: not looked up in the article's list); conditions: Table S1; read-out: antiviral EC50, RhCMV; cited from earlier work
# ChCMV = test system: ChCMV; set-up: method as in ref 35, 38 (a number printed in a supplementary file, which may have a reference list of its own: not looked up in the article's list); conditions: Table S1; read-out: antiviral EC50, ChCMV; cited from earlier work
# MCMV = test system: MCMV; set-up: method as in ref 35, 38 (a number printed in a supplementary file, which may have a reference list of its own: not looked up in the article's list); conditions: Table S1; read-out: antiviral EC50, MCMV; cited from earlier work
# RCMV = test system: RCMV; set-up: method as in ref 35, 38 (a number printed in a supplementary file, which may have a reference list of its own: not looked up in the article's list); conditions: Table S1; read-out: antiviral EC50, RCMV; cited from earlier work
# HHV-6A = test system: HHV-6A; set-up: method as in ref 35 (a number printed in a supplementary file, which may have a reference list of its own: not looked up in the article's list); conditions: Table S1; J-Jhan cells; read-out: antiviral EC50, HHV-6A (J-Jhan); cited from earlier work
# HSV-1 = test system: HSV-1; set-up: method as in ref 35, 38 (a number printed in a supplementary file, which may have a reference list of its own: not looked up in the article's list); conditions: Table S1; read-out: antiviral EC50, HSV-1; cited from earlier work
# VZV = test system: VZV; set-up: method as in ref 35, 38 (a number printed in a supplementary file, which may have a reference list of its own: not looked up in the article's list); conditions: Table S1; read-out: antiviral EC50, VZV; cited from earlier work
# KSHV = test system: KSHV; set-up: method as in ref 35, 38 (a number printed in a supplementary file, which may have a reference list of its own: not looked up in the article's list); conditions: Table S1; read-out: antiviral EC50, KSHV; cited from earlier work
# HAdV = test system: HAdV; set-up: method as in ref 35, 38 (a number printed in a supplementary file, which may have a reference list of its own: not looked up in the article's list); conditions: Table S1; read-out: antiviral EC50, HAdV; cited from earlier work
# JCPyV = test system: JCPyV; set-up: method as in ref 35, 38 (a number printed in a supplementary file, which may have a reference list of its own: not looked up in the article's list); conditions: Table S1; read-out: antiviral EC50, JCPyV; cited from earlier work
# in vitro = conditions: human
# HHV-6A-GFP = experiment: HHV-6A plaque reduction assay in HFFs
# SARS-CoV-2 d6-YFP [3] = experiment: microbe, parasite or virus in culture
# [4] = Neutral Red uptake cell viability assay, HFF; conditions: human
# [5] = Neutral Red uptake cell viability assay, MEF; conditions: mouse
# [6] = Neutral Red uptake cell viability assay, Vero; conditions: African green monkey, CC50, Vero (Fig 4F)
# [7] = Neutral Red uptake cell viability assay, COS-7; conditions: African green monkey
# [8] = Neutral Red uptake cell viability assay, Caco-2; conditions: human
# [9] = Neutral Red uptake / Alamar Blue cell viability assay, 293T; conditions: human
# GPCMV = test system: GPCMV; set-up: method as in ref 35, 38 (a number printed in a supplementary file, which may have a reference list of its own: not looked up in the article's list); conditions: Table S1; read-out: antiviral EC50, GPCMV; cited from earlier work
# HCMV TB40-YFP = experiment: HCMV time-of-addition reporter assay in HFFs, TB40-YFP
# HCMV AD169-GFP = experiment: HCMV time-of-addition reporter assay in HFFs, AD169-GFP
# HCMV Merlin-GFP = experiment: HCMV time-of-addition reporter assay in HFFs, Merlin-GFP
compound,measurement,setting,value
CN(C)C(=O)Cn1cc(-c2ccc(-c3cncc4ccccc34)cc2)cn1 [BI-1347],EC50,EHV-1-GFP; COS-7,80 nM
same,EC50,"EHV-1; EHV-1, qPCR / COS-7, read-out: EC50",< 3 nM
same,EC50,EHV-1; Equus caballus,20 ± 50 nM
same,EC50,"EHV-1; Equus caballus, read-out: antiviral EC50, EHV-1 (HFF)",30 ± 30 nM
same,EC50,"[1]; human gammaherpesvirus 4, P3HR-1",5.5 ± 4.2 µM
same,EC50,"MHV-68-Luc; Murine herpesvirus, COS-7, read-out: antiviral EC50, MHV-68 (COS-7), Table S1, COS-7",0.1 ± 0.1 nM
same,EC50,"MHV-68-Luc; Murine herpesvirus, Vero, read-out: antiviral EC50, MHV-68 (Vero), Table S1, Vero",0.5 ± 0.03 nM
same,EC50,"MHV-68-Luc; Murine herpesvirus, read-out: antiviral EC50, MHV-68 (HFF), Table S1, HFF",40 ± 20 nM
same,EC50,"MHV-68-Luc; Murine herpesvirus, read-out: antiviral EC50, MHV-68 (MEF), Table S1, MEF",6 ± 2 nM
same,EC50,vaccinia virus VV IHD-5; Orthopoxvirus vaccinia,> 50 µM
same,CDK8 inhibitor sensitivity of SARS-CoV-2 in Caco-2 cells,SARS-CoV-2 d6-YFP [2],low level of sensitivity
same,EC50,HCMV,0.9 ± 0.7 nM
same,EC50,RhCMV,0.4 ± 0.5 nM
same,EC50,ChCMV,10 ± 20 nM
same,EC50,MCMV,20 ± 10 nM
same,EC50,RCMV,2 ± 4 nM
same,EC50,HHV-6A,> 50 µM
same,EC50,HSV-1,> 50 µM
same,EC50,VZV,26 ± 10 µM
same,EC50,KSHV,300 ± 600 nM
same,EC50,HAdV,50 ± 100 nM
same,EC50,JCPyV,700 ± 1600 nM
same,CC50,in vitro,> 100 µM
same,EC50,"HHV-6A-GFP; Human betaherpesvirus 6A, read-out: Antiviral mean EC50 based on plaque assay measurements",200 ± 200 nM
same,EC50,"HHV-6A-GFP; Human betaherpesvirus 6A, read-out: antiviral EC50, HHV-6A (HFF)",300 ± 200 nM
same,EC50,"SARS-CoV-2 d6-YFP [3]; Severe acute respiratory syndrome coronavirus 2, Caco-2, 30 h, read-out: Antiviral mean EC50 based on YFP measurements",≥ 15.4 µM
same,EC50,"SARS-CoV-2 d6-YFP [3]; Severe acute respiratory syndrome coronavirus 2, Caco-2, read-out: antiviral EC50, SARS-CoV-2",22.8 ± 3.2 µM
same,CC50,"[4]; CC50, HFF, listed with qPCR / HFF (Fig 1E)",> 50 µM
same,CC50,"[4]; mean CC50, HFF, HHV-6A assay conditions (Fig 2D)",> 100 µM
same,CC50 at 7 d,[5],> 100 µM
same,CC50 at 7 d,[6],> 100 µM
same,CC50 at 4 d,"[7]; CC50, COS-7 (Fig 4F)",> 100 µM
same,CC50 at 4 d,"[7]; CC50, COS-7, listed with GFP / COS-7 (Fig 1E)",> 50 µM
same,CC50 at 4 d,"[7]; CC50, COS-7, listed with qPCR / COS-7 (Fig 1E)",> 50 µM
same,CC50 at 3 d,[8],> 100 µM
same,CC50 at 2 d,[9],93 ± 5 µM
Cn1ncc2cc(-c3cnc(N)c(Cl)c3N3CCC4(CCNC4=O)CC3)ccc21 [CCT-251921],EC50,"EHV-1-GFP; EHV-1, GFP / COS-7, read-out: EC50",100 nM
same,EC50,"EHV-1; EHV-1, qPCR / HFF, read-out: EC50",800 nM
same,EC50,[1],2.5 ± 1 µM
same,EC50,"MHV-68-Luc; Table S1, COS-7, read-out: antiviral EC50, MHV-68 (COS-7)",0.5 ± 0.9 nM
same,EC50,"MHV-68-Luc; Table S1, HFF, read-out: antiviral EC50, MHV-68 (HFF)",500 ± 300 nM
same,EC50,"MHV-68-Luc; Table S1, MEF, read-out: antiviral EC50, MHV-68 (MEF)",10 ± 9 nM
same,EC50,"MHV-68-Luc; Table S1, Vero, read-out: antiviral EC50, MHV-68 (Vero)",2 ± 1 nM
same,EC50,vaccinia virus VV IHD-5,> 50 µM
same,CDK8 inhibitor sensitivity of SARS-CoV-2 in Caco-2 cells,SARS-CoV-2 d6-YFP [2],lack of CDK8 inhibitor sensitivity
same,EC50,"SARS-CoV-2 d6-YFP [2]; read-out: Antiviral mean EC50 based on YFP measurements, SARS-CoV-2 d6-YFP, Caco-2, […]",≥ 15.4 µM
same,EC50,"SARS-CoV-2 d6-YFP [2]; read-out: antiviral EC50, SARS-CoV-2, Table S1",62.4 ± 18.5 µM
same,CC50,Vero cells,> 100 µM
same,CC50,MEFs,> 100 µM
same,CC50,P3HR-1 cells,> 100 µM
same,CC50,Caco-2 cells,> 100 µM
same,CC50,293T-tdTom-Luc cells,95.3 ± 6.6 µM
same,EC50,HCMV,4 ± 2 nM
same,EC50,RhCMV,3 ± 2 nM
same,EC50,ChCMV,30 ± 20 nM
same,EC50,MCMV,> 40 nM
same,EC50,RCMV,20 ± 50 nM
same,EC50,GPCMV,50 ± 80 nM
same,EC50,HHV-6A,39 ± 21 µM
same,EC50,HSV-1,> 50 µM
same,EC50,VZV,28 ± 9 µM
same,EC50,KSHV,300 nM
same,EC50,HAdV,30 ± 30 nM
same,EC50,JCPyV,3700 ± 3000 nM
same,EC50,"HHV-6A-GFP; read-out: antiviral EC50, HHV-6A (HFF), Table S1, HFF",40 ± 20 nM
same,EC50,"HCMV TB40-YFP; read-out: TB40-YFP EC50, drug addition 0 d p.i., readout 7 d p.i.",8.7 ± 5 nM
same,EC50,"HCMV TB40-YFP; read-out: TB40-YFP EC50, drug addition 1 d p.i., readout 7 d p.i.",26 ± 4 nM
same,EC50,"HCMV TB40-YFP; read-out: TB40-YFP EC50, drug addition 2 d p.i., readout 7 d p.i.",> 50 nM
same,EC50,"HCMV TB40-YFP; read-out: TB40-YFP EC50, drug addition 3 d p.i., readout 7 d p.i.",> 50 nM
same,EC50,"HCMV TB40-YFP; read-out: TB40-YFP EC50, drug addition 4 d p.i., readout 7 d p.i.",> 50 nM
same,EC50,"HCMV AD169-GFP; read-out: AD169-GFP EC50, drug addition 0 d p.i., readout 7 d p.i.",0.7 ± 0.7 nM
same,EC50,"HCMV AD169-GFP; read-out: AD169-GFP EC50, drug addition 1 d p.i., readout 7 d p.i.",3.2 ± 2.6 nM
same,EC50,"HCMV AD169-GFP; read-out: AD169-GFP EC50, drug addition 2 d p.i., readout 7 d p.i.",8.3 ± 7.9 nM
same,EC50,"HCMV AD169-GFP; read-out: AD169-GFP EC50, drug addition 3 d p.i., readout 7 d p.i.",> 50 nM
same,EC50,"HCMV AD169-GFP; read-out: AD169-GFP EC50, drug addition 4 d p.i., readout 7 d p.i.",> 50 nM
same,EC50,"HCMV Merlin-GFP; read-out: Merlin-GFP EC50, drug addition 0 d p.i., readout 7 d p.i.",0.7 ± 1.3 nM
same,EC50,"HCMV Merlin-GFP; read-out: Merlin-GFP EC50, drug addition 1 d p.i., readout 7 d p.i.",13 ± 8 nM
same,EC50,"HCMV Merlin-GFP; read-out: Merlin-GFP EC50, drug addition 2 d p.i., readout 7 d p.i.",3.4 ± 6.8 nM
same,EC50,"HCMV Merlin-GFP; read-out: Merlin-GFP EC50, drug addition 4 d p.i., readout 7 d p.i.",5.9 ± 4.9 nM

# Source: PMC12567398, “New Assay Systems to Characterize the Broad-Spectrum Antiherpesviral and Non-Herpesviral Activity of Cyclin-Dependent Kinase (CDK) 8 Inhibitors” (Pharmaceuticals, 2025)
